Key:
Escherichia coli [1] = test: Inhibition of ribosome function in a coupled transcription and translational assay using Escherichia coli S30 extracts; assay type: functional, organism-based
Escherichia coli [2] = test: Binding affinity to 70S bacterial ribosome isolated from Escherichia coli; assay type: functional

Row | Compound | IC50 (Escherichia coli [1]) [nM] | Kd (Escherichia coli [2]) [nM]
1 | CC[C@H]1OC(=O)[C@H](C)[C@@H](O[C@H]2C[C@@](C)(OC)[C@@H](OC(=O)NCCNC(=O)CCC3=CC4=Cc5c(C)cc(C)n5[B-](F)(F)[N+]4=C3)[C@H](C)O2)[C@H](C)[C@@H](O[C@@H]2O[C@H](C)C[C@H](N(C)C)[C@H]2O)[C@](C)(OC)C[C@@H](C)C(=O)[C@H](C)[C@@H](O)[C@]1(C)O | 160 | < 0.5
2 | CC[C@H]1OC(=O)[C@H](C)[C@@H](O[C@H]2C[C@@](C)(OC)[C@@H](O)[C@H](C)O2)[C@H](C)[C@@H](O[C@@H]2O[C@H](C)C[C@H](N(C)C)[C@H]2O)[C@](C)(O)C[C@@H](C)[C@H](NC(=O)CCC2=CC3=Cc4c(C)cc(C)n4[B-](F)(F)[N+]3=C2)[C@H](C)[C@@H](O)[C@]1(C)O | 1500 | 30
3 | CC[C@H]1OC(=O)[C@H](C)[C@@H](O[C@H]2C[C@@](C)(OC)[C@@H](OC(=O)NCCNC(=O)CCC3=CC4=Cc5c(C)cc(C)n5[B-](F)(F)[N+]4=C3)[C@H](C)O2)[C@H](C)[C@@H](O[C@@H]2O[C@H](C)C[C@H](N(C)C)[C@H]2O)[C@](C)(O)C[C@@H](C)[C@H](NC(=O)OCc2ccccc2)[C@H](C)[C@@H](O)[C@]1(C)O | 550 | 1.5
4 | CC[C@H]1OC(=O)[C@H](C)[C@@H](O[C@H]2C[C@@](C)(OC)[C@@H](O)[C@H](C)O2)[C@H](C)[C@@H](O[C@@H]2O[C@H](C)C[C@H](N(C)C)[C@H]2O)[C@](C)(O)C[C@@H](C)C(=O)[C@H](C)[C@@H](O)[C@]1(C)O [ERYTHROMYCIN] | 80 | –

Reference: ChEMBL document CHEMBL1149416, “Design, synthesis, and biological evaluation of BODIPY-erythromycin probes for bacterial ribosomes” (Bioorg Med Chem Lett, 2006)
